In PubChem BioAssay (NCI):
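Dose response: 5 concentrations. Exposure: 48 h. Format: 96-well plates. Endpoint: linear interpolation; highest concentration if not reached. GI50: concentration for 50% inhibition of growth. TGI marks complete inhibition of growth.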

system: HT29 colon; experiment: inhibition of tumour cell growth, NCI panel, 48 h

Row | SMILES | TGI [µM]
1 | Nc1cccc2cc(Cl)cnc12 | > 100
2 | CC1=C(C)[C@@]2(C)O[C@@]2(C)O[C@@]2(C)O[C@@]12C | > 100
3 | Cc1ccccc1-n1c(=O)c2ncn(CCCl)c2n(-c2ccccc2C)c1=S | > 100

system: MALME-3M melanoma; experiment: inhibition of tumour cell growth, NCI panel, 48 h

Row | SMILES | TGI [µM]
4 | O=c1[nH][nH]c(=O)n1Cc1ccccc1Cn1c(=O)[nH][nH]c1=O | > 100
5 | CCNC(=S)N/N=C/c1cc([N+](=O)[O-])ccc1O | > 100
6 | CCOC(=O)c1c2ccccc2n2c(N)c(C(N)=O)nnc12 | > 100
7 | Cc1cc(N(CCC#N)CCC#N)ccc1/C(N=Nc1ccc(Cl)cc1)=N\NC(=O)c1ccccc1 | > 100
8 | CC[C@@]1(O)C(=O)OCc2c1cc1n(c2=O)Cc2c-1nc1ccccc1c2/C=N\NC(=O)CN | > 91.6
9 | CCc1ccc(CCN2CCCCC2)nc1 | > 100
10 | O=C(NNC(=O)c1ccccc1SSc1ccccc1C(=O)NNC(=O)c1ccccc1S)c1ccccc1S | > 81.2
11 | CCOc1cc2c(cc1O)/C(=N\OC)C[C@@H]1[C@@H]2CC[C@]2(C)[C@@H](O)CC[C@@H]12 | 34.7
12 | O=C1/C(=C/c2ccc(O)cc2)CC/C1=C\c1ccc(O)cc1 | > 100
13 | CC(C)C1/C(=N/O)CC(c2ccccc2)N(N=O)C1c1ccccc1 (stereo not drawn) | 61.9
14 | CC1(C)N=C(/C(Cl)=[N+](/[O-])C(=O)c2ccc(F)cc2)C(C)(C)N1O | 30.8
15 | COC(=O)[C@H]1CO[C@@H](C(C)(C)C)N1C(=O)N1C=CC(=O)C[C@@H]1C | > 100
16 | Clc1ccc(/C=C/c2nc3ccccc3s2)cc1Cl | > 100
17 | CCC1(O)CC2CC(=O)OC2C1O (stereo not drawn) | > 100
18 | Cc1ccc(SCC(CSCCO)OCn2cnc3c2NC(N)=NC32OCCO2)cc1 (stereo not drawn) | > 100
19 | C(/c1ccco1)=c1/nc(-c2ccccc2)n2c1nc1ccccc12 | > 100
20 | COC(=O)C1CCC(=O)N1C(c1ccccc1)c1ccc(OC)c(OC)c1 (stereo not drawn) | > 100
21 | Oc1cccc2c(Cl)ccnc12 | 25.4
22 | Cc1cccc(/C=N/NC(=S)Nc2ccccc2)n1 | 64.2
23 | N#CC1=C(N)N(c2ccccc2)C(c2ccco2)C1(C#N)C#N (stereo not drawn) | 52.8
24 | NC(=O)C(c1ccccc1)N1OC2C(=O)N(c3ccccc3)C(=O)C2C1c1c2ccccc2c(Cl)c2ccccc12 (stereo not drawn) | > 100

Row | SMILES | TGI [µM]
25 | CC(C)c1ccc(/C=C2/C=C(c3ccc4ccccc4c3)OC2=O)cc1 | 33.4
26 | CC[C@@]1(C[C@H]2C[C@@]3(C(=O)OC)c4[nH]c5ccccc5c4CCN3C2=O)COC2(CCCCC2)O1 | > 100
27 | COc1ccc2c(=O)c(O)c(-c3ccc(OC)c(OC)c3)oc2c1 | > 100
28 | COc1ccc(C(OCC2OC(n3cc(C)c(=O)[nH]c3=O)CC2n2cc(Cn3cc(I)c(=O)[nH]c3=O)nn2)(c2ccccc2)c2ccccc2)cc1 (stereo not drawn) | > 100
29 | O=S1(=O)NC(=NCc2c[nH]c3ccccc23)N(c2ccccc2)c2ccncc21 | > 100
30 | COc1ccc(CNc2nc(NCc3ccc(OC)c(OC)c3)nc(NC3CCCCC3)n2)cc1 | > 100
31 | C=C(C1=CC(=O)C(C)(C)O1)[C@@H]1CC=C([C@@H]2CC[C@H]3[C@@]2(C)CC[C@H]2C(C)(C)C(=O)[C@H](O)C[C@]32C)[C@H](O)O1 | 5.27
32 | C=C(Br)C(C)(Cl)CCC(Br)C(C)(C)Cl (stereo not drawn) | 57.8
33 | COc1c(C)c(C/C=C(\C)CCCCO[Si](c2ccccc2)(c2ccccc2)C(C)(C)C)c(OC)c(OC)c1OC | > 100
34 | CN1CCN([C@H]2C[C@H]3[C@@H]4CC=C5C[C@@H](O)CC[C@]5(C)[C@H]4CC[C@]3(C)C2=O)CC1 | > 100
35 | COc1ccc(C2c3cc4c(cc3OC(NNS(=O)(=O)c3ccc(C)cc3)C2C)OCO4)cc1 (stereo not drawn) | > 100
36 | C[C@@]12C[C@@H](c3ccccc3O1)N1CCCCSC1=N2 | > 100
37 | CCOC(=O)Nn1c(C)nnc1-c1ccccc1 | > 100
38 | CNC(=O)OCC1=C(COC(=O)NC)C(C)N(c2ccc(OC)cc2)C1 (stereo not drawn) | > 100
39 | c1ccc(N=C2SC3=Nc4cccc5cccc(c45)N3C2=Nc2ccccc2)cc1 | > 100
40 | Cc1cc(O)c2c(=O)c3ccccc3[nH]c2c1 | > 100
41 | Cc1cn(C2CC(N(O)C(N)=O)C(CO)O2)c(=O)[nH]c1=O (stereo not drawn) | > 100
42 | O=C(Cc1cccs1)N[C@@H]1C(=O)N2C(C(=O)OC(c3ccccc3)c3ccccc3)=C(CO)CS[C@H]12 | > 100
43 | Nc1cccc2cc(Cl)cnc12 | > 100
44 | CC1=C(C)[C@@]2(C)O[C@@]2(C)O[C@@]2(C)O[C@@]12C | > 100

system: EKVX NSCLC; experiment: inhibition of tumour cell growth, NCI panel, 48 h

Row | SMILES | TGI [µM] | GI50 [µM]
45 | O=c1[nH][nH]c(=O)n1Cc1ccccc1Cn1c(=O)[nH][nH]c1=O | > 100 | 
46 | CCNC(=S)N/N=C/c1cc([N+](=O)[O-])ccc1O | > 100 | 
47 | CCOC(=O)c1c2ccccc2n2c(N)c(C(N)=O)nnc12 | > 100 | 
48 | Cc1cc(N(CCC#N)CCC#N)ccc1/C(N=Nc1ccc(Cl)cc1)=N\NC(=O)c1ccccc1 | > 100 | 
49 | CC[C@@]1(O)C(=O)OCc2c1cc1n(c2=O)Cc2c-1nc1ccccc1c2/C=N\NC(=O)CN | > 100 | 
50 | CCc1ccc(CCN2CCCCC2)nc1 | > 100 | 
51 | O=C(NNC(=O)c1ccccc1SSc1ccccc1C(=O)NNC(=O)c1ccccc1S)c1ccccc1S | > 71.5 | 
52 | CCOC(=O)C(NC(C)=O)(Nc1ccc(F)cc1)C(F)(F)F (stereo not drawn) | > 100 | 
53 | CCOc1cc2c(cc1O)/C(=N\OC)C[C@@H]1[C@@H]2CC[C@]2(C)[C@@H](O)CC[C@@H]12 | > 100 | 
54 | O=C1/C(=C/c2ccc(O)cc2)CC/C1=C\c1ccc(O)cc1 | > 100 | 
55 | CC(C)C1/C(=N/O)CC(c2ccccc2)N(N=O)C1c1ccccc1 (stereo not drawn) | 73.5 | 
56 | CC1(C)N=C(/C(Cl)=[N+](/[O-])C(=O)c2ccc(F)cc2)C(C)(C)N1O | 40.6 | 
57 | COC(=O)[C@H](Cc1c[nH]c2ccccc12)NP(=O)(O)OCC1C=CC(n2cc(C)c(=O)[nH]c2=O)O1 (stereo partly drawn) | > 100 | 
58 | COc1cc(/C=C2\S/C(=N/Nc3nc(-c4ccc(Br)cc4)cs3)NC2=O)cc(OC)c1OC | 63.8 | 
59 | COC(=O)[C@H]1CO[C@@H](C(C)(C)C)N1C(=O)N1C=CC(=O)C[C@@H]1C | > 100 | 
60 | CCCNC1=C2CC(C)CC(OC)[C@@H](O)[C@H](C)/C=C(\C)C(OC(N)=O)C(OC)/C=C\C=C(/C)C(=O)NC(=CC1=O)C2=O (stereo partly drawn) | 84.4 | 16
61 | Clc1ccc(/C=C/c2nc3ccccc3s2)cc1Cl | > 100 | 
62 | CCC1(O)CC2CC(=O)OC2C1O (stereo not drawn) | > 100 | 
63 | Cc1ccc(SCC(CSCCO)OCn2cnc3c2NC(N)=NC32OCCO2)cc1 (stereo not drawn) | > 100 | 
64 | C(/c1ccco1)=c1/nc(-c2ccccc2)n2c1nc1ccccc12 | 6.07 | 
65 | COC(=O)C1CCC(=O)N1C(c1ccccc1)c1ccc(OC)c(OC)c1 (stereo not drawn) | > 100 | 
66 | Oc1cccc2c(Cl)ccnc12 | > 30.8 | 
67 | Cc1cccc(/C=N/NC(=S)Nc2ccccc2)n1 | > 49.3 | 
68 | N#CC1=C(N)N(c2ccccc2)C(c2ccco2)C1(C#N)C#N (stereo not drawn) | 73.3 | 

Row | SMILES | TGI [µM] | GI50 [µM]
69 | NC(=O)C(c1ccccc1)N1OC2C(=O)N(c3ccccc3)C(=O)C2C1c1c2ccccc2c(Cl)c2ccccc12 (stereo not drawn) | > 100 | 
70 | CC(C)c1ccc(/C=C2/C=C(c3ccc4ccccc4c3)OC2=O)cc1 | > 92.5 | 
71 | COc1ccc(/C=C2\CCC(C)C3=C2NC(=S)NC3c2ccc(OC)c(OC)c2)cc1OC (stereo not drawn) | > 31.6 | 
72 | CC[C@@]1(C[C@H]2C[C@@]3(C(=O)OC)c4[nH]c5ccccc5c4CCN3C2=O)COC2(CCCCC2)O1 | > 100 | 
73 | COc1ccc2c(=O)c(O)c(-c3ccc(OC)c(OC)c3)oc2c1 | > 100 | 
74 | COc1ccc(C(OCC2OC(n3cc(C)c(=O)[nH]c3=O)CC2n2cc(Cn3cc(I)c(=O)[nH]c3=O)nn2)(c2ccccc2)c2ccccc2)cc1 (stereo not drawn) | > 100 | 
75 | O=S1(=O)NC(=NCc2c[nH]c3ccccc23)N(c2ccccc2)c2ccncc21 | > 100 | 
76 | COc1ccc(CNc2nc(NCc3ccc(OC)c(OC)c3)nc(NC3CCCCC3)n2)cc1 | > 100 | 
77 | C=C(C1=CC(=O)C(C)(C)O1)[C@@H]1CC=C([C@@H]2CC[C@H]3[C@@]2(C)CC[C@H]2C(C)(C)C(=O)[C@H](O)C[C@]32C)[C@H](O)O1 | 22.2 | 
78 | CC1=CC2C(O1)C1C(=O)C=CC(=O)C1=CC2[N+](=O)[O-] (stereo not drawn) | 33.8 | 
79 | C=C(Br)C(C)(Cl)CCC(Br)C(C)(C)Cl (stereo not drawn) | > 100 | 
80 | O=C(CCC(=O)c1ccc(Cl)cc1)NO | > 100 | 
81 | COc1c(C)c(C/C=C(\C)CCCCO[Si](c2ccccc2)(c2ccccc2)C(C)(C)C)c(OC)c(OC)c1OC | > 31.6 | 
82 | CN1CCN([C@H]2C[C@H]3[C@@H]4CC=C5C[C@@H](O)CC[C@]5(C)[C@H]4CC[C@]3(C)C2=O)CC1 | > 100 | 
83 | C[C@@]12C[C@@H](c3ccccc3O1)N1CCCCSC1=N2 | > 100 | 
84 | CCOC(=O)Nn1c(C)nnc1-c1ccccc1 | > 100 | 
85 | CNC(=O)OCC1=C(COC(=O)NC)C(C)N(c2ccc(OC)cc2)C1 (stereo not drawn) | > 100 | 
86 | Cc1nc(C(N)=S)sc1/C(CC(=O)C(=O)Nc1cccc2ccc(O)cc12)=N\NC(=O)c1ccncc1 | > 100 | 
87 | Cc1cc(O)c2c(=O)c3ccccc3[nH]c2c1 | > 100 | 
88 | O=C(O)c1cccc2c1/C(=N/Nc1ccccc1)CC2 | > 100 | 
89 | O=C(Cc1cccs1)N[C@@H]1C(=O)N2C(C(=O)OC(c3ccccc3)c3ccccc3)=C(CO)CS[C@H]12 | > 100 | 
90 | Nc1cccc2cc(Cl)cnc12 | > 100 | 
91 | CC1=C(C)[C@@]2(C)O[C@@]2(C)O[C@@]2(C)O[C@@]12C | > 100 | 
92 | Cc1ccccc1-n1c(=O)c2ncn(CCCl)c2n(-c2ccccc2C)c1=S | > 100 | 
